pEC50: −log10 of the molar value.

Consider 28 molecules from patent US9938222B2 (BRISTOL-MYERS SQUIBB COMPANY, priority 2014, dated 2018).

human GPR120, sequence (Q5NUL3 whole entry): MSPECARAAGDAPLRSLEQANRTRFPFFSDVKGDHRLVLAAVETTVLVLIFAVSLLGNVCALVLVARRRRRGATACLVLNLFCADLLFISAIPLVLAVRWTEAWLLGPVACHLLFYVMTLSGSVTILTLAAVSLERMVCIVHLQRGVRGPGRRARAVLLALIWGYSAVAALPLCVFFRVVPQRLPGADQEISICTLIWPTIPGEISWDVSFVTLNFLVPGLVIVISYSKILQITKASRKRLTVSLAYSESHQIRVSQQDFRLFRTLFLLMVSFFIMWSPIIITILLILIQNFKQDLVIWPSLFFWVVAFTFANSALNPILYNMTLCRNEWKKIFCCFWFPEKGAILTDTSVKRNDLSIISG

In the test the target is human GPR120 (Homo sapiens (Human), UniProt Q5NUL3). As to the kind of experiment: GPR120 pERK AlphaScreen SureFire Assay (human GPR120 pERK assay). Type of test: cell-based. Conditions: CHO cells stably transfected with short form of human GPR120. The text has this:
GPR120 activity was monitored by measuring phosphorylation of ERK (pERK), since G protein receptors are known to activate the ERK signaling cascade either directly and/or through recruitment of arrestin that serves as a scaffold for downstream signaling events.
GPR120 pERK AlphaScreen SureFire Assay
The human and mouse GPR120-mediated intracellular phosphorylated ERK assays were established using CHOA12 cells stably transfected with the short form of human or mouse GPR120 receptor. Cells were cultured in growth medium consisting of F-12 media (Invitrogen Cat. #11765) with 5% Charcoal/Dextran FBS (Invitrogen Cat. #12676-029), 500 μg/mL GENETICIN® (Life Technologies Cat. #10131-027) and 250 μg/mL Zeocin (Invitrogen Cat. #R250-01). Cells were cryo-preserved at a concentration of 2×10^7 cells/mL, in 90% Charcoal/Dextran FBS and 10% DMSO, and frozen in liquid nitrogen at a low passage number.
For the pERK assay, 2×10^7 cells/mL cryopreserved human and mouse cells were thawed rapidly in a 37° C. water bath and added to a T-225 flask containing 50 mL growth medium. The flasks were placed in a tissue culture incubator overnight (37° C., 5% CO2). The next day, cells were harvested with trypsin (Gibco Cat. #25300-054), resuspended in serum-containing growth medium and counted using a Cellometer and volume adjusted to a concentration of 0.6×10^6 cells/mL. Cells were plated into 384-well clear bottom tissue culture plates (BD Cat. #353962) at 50 μL/well, for a density of 30,000 cells/well using a MULTIDROP® and incubated for 16-18 hours (overnight) at 37° C. with 5% CO2. The next day, cells were serum starved in 30 μL of F-12 media without any serum or antibiotics for 2 hours at 37° C.
Test compounds were 3-fold, 11-point serially diluted in DMSO in a REMP assay plate (Matrix Cat. #4307) by Tecan and 5 μL was transferred into an ECHO source plate (Labcyte Cat. #LC-0200). Cells were then stimulated with 50 nL of compound dilutions using ECHO liquid handler for 7 min at 37° C. Compounds ranged from final assay concentrations of 33.33 μM to 0.56 nM.
The media was then dumped and cells lysed with 20 μL of 1× Lysis buffer from the AlphaScreen SureFire Phospho-ERK 1/2 Kit (Perkin Elmer Cat. #6760617M). The lysis buffer was diluted 5-fold with water before use. The plate was agitated on a shaker for 10 min after which 2 μL was transferred into a 384-well white proxiplate (Perkin Elmer Cat. #6008289). The SureFire assay reagent mix was prepared by mixing 60 parts Reaction Buffer, 10 parts Activation Buffer, 1 part Donor Beads, 1 part Acceptor Beads (Perkin Elmer Cat. #TGRES10K). 3.5 μL/well of this reagent mix was manually added to the proxiplate with a multichannel pipettor. Plates were spun down at 1000 rpm for 2 min, followed by light-protected incubation at room temperature for 2 hours. The plates were read on the Alpha-technology compatible Envision multilabel plate reader using AlphaScreen protocol according to manufacturer's specifications. The agonist effect of compounds was expressed as 100×(average sample-average blank)/(average total-average blank) where sample is the luminescence activity in the presence of test compound, blank is equal to the luminescence activity in the presence of DMSO control and the total is signal induced by 50 μM linolenic acid as reference compound. Activation data for the test compound over a range of concentrations was plotted as percentage activation of the test compound (100%=maximum response). After correcting for background, EC50 values were determined. The EC50 is defined as the concentration of test compound which produces 50% of the maximal response and was quantified using the 4 parameter logistic equation to fit the data.
The human and mouse GPR120-mediated intracellular phosphorylated ERK assays were also established using CHO-K1 cells stably transfected with the short form of human or mouse GPR120 receptor. […]
For orientation: Alpha assays give light when donor and acceptor beads are brought close together.
As a reminder, the pEC50 is −log10 of the EC50, conventionally taken in molar units. Read a high pEC50 as a small EC50. Consider `CC(C)Oc1ccc(F)c(-c2ccc(OC[C@@H]3C[C@H]3C(=O)O)c(F)c2)c1` (single isomer, unassigned) [Example 63], for which the negative logarithm of the EC50 (pEC50) is 6.74.

`CC(C)Oc1ccc(F)c(-c2ccc(CC[C@H]3C[C@@H]3C(=O)O)cc2)c1` (single isomer, unassigned) [Example 32] had a negative-log EC50 (pEC50) of 6.00.

As for `O=C(O)[C@@H]1C[C@H]1COc1ccc(-c2cc(C(F)(F)F)ccc2F)cc1` (racemic) [Example 123, Trans-2-(((2′-fluoro-5′-(trifluoromethyl)-[1,1′-biphenyl]-4-yl)oxy)methyl)cyclopropanecarboxylic acid], the negative-log EC50 (pEC50) was 6.17.

In turn, `O=C(O)[C@@H]1C[C@H]1COc1ccc(-c2cc(Oc3ccc(F)c(F)c3)ccc2F)cc1` (racemic) [Example 91, Trans-2-(((5′-(3,4-difluorophenoxy)-2′-fluoro-[1,1′-biphenyl]-4-yl)oxy)methyl) cyclopropanecarboxylic acid] had a pEC50 of 6.51.

`CC(C)Oc1ccc(F)c(-c2ccc(OC[C@H]3C[C@@H]3C(=O)O)cc2)c1` (single isomer, unassigned) [Example 2] showed a pEC50 of 6.60.

`O=C(O)C1CC1COc1ccc(-c2cc(OC3CCCC3)ccc2F)cc1` (racemic) [Example 50, Trans-2-(((5′-cyclopentyloxy)-2′-fluoro-[1,1′-biphenyl]-4-yl)oxy)methyl) cyclopropanecarboxylic acid] showed a pEC50 of 6.59.

Take `O=C(O)[C@H]1CC1COc1ccc(-c2cc(Oc3cccc(F)c3)ccc2F)cc1F` (stereo partly shown) [Example 98]: the pEC50 was 6.70.

As for `COc1ccc(OC(F)(F)F)cc1-c1ccc(CC[C@@H]2C[C@H]2C(=O)O)cc1` (racemic) [Example 79, Trans-2-(2-(2′-methoxy-5′-(trifluoromethoxy)-[1,1′-biphenyl]-4-yl)ethyl)cyclopropanecarboxylic acid], the negative-log EC50 (pEC50) is 5.84.

With `O=C(O)[C@@H]1C[C@H]1COc1ccc(-c2cc(OC(F)(F)F)ccc2Cl)cc1` (racemic) [Example 54, Trans-2-(((2′-chloro-5′-(trifluoromethoxy)-[1,1′-biphenyl]-4-yl)oxy)methyl)cyclopropanecarboxylic acid], the pEC50 was 6.30.

With `O=C(O)[C@@H]1C[C@H]1COc1ccc(-c2cc(Oc3ccccc3)cnc2Cl)cc1` (racemic) [Example 110, Trans-2-((4-(2-chloro-5-phenoxypyridin-3-yl)phenoxy)methyl)cyclopropanecarboxylic acid], the pEC50 was 6.37.

In the case of `CC(C)Oc1ccc(F)c(-c2ccc(CC[C@]3(F)C[C@@H]3C(=O)O)cc2)c1` (racemic) [Example 40, Trans-2-fluoro-2-(2-(2′-fluoro-5′-isopropoxy-[1,1′-biphenyl]-4-yl)ethyl) cyclopropanecarboxylic acid], the pEC50 is 5.29.

`Cc1nn(Cc2ccc(Cl)cc2)cc1-c1ccc(OC[C@@H]2C[C@H]2C(=O)O)cc1` (racemic) [Example 85, Trans-2-((4-(1-(4-chlorobenzyl)-3-methyl-1H-pyrazol-4-yl)phenoxy)methyl) cyclopropanecarboxylic acid] gave a negative-log EC50 (pEC50) of 5.42.

As to `CC(C)Oc1ccc(F)c(-c2ccc(CC[C@H]3C[C@]3(C)C(=O)O)cc2)c1` (racemic) [Example 41, Trans-2-(2-(2′-fluoro-5′-isopropoxy-[1,1′-biphenyl]-4-yl)ethyl)-1-methylcyclopropanecarboxylic acid], the negative-log EC50 (pEC50) was 6.07.

As for `O=C(O)[C@@H]1C[C@H]1COc1ccc(-c2cc(Oc3ccc(Cl)cc3)ccc2F)cc1` (racemic) [Example 92, Trans-2-(((5′-(4-Chlorophenoxy)-2′-fluoro-[1,1′-biphenyl]-4-yl)oxy)methyl) cyclopropanecarboxylic acid], the negative-log EC50 (pEC50) is 6.52.

For `CC(C)Oc1cc(Cl)cc(-c2ccc(OC[C@H]3C[C@@H]3C(=O)O)c(F)c2)c1` (single isomer, unassigned) [Example 14], the negative-log EC50 (pEC50) was 6.08.

As to `C=C(C)COc1cc(F)cc(-c2ccc(OC[C@@H]3C[C@H]3C(=O)O)cc2)c1` (racemic) [Example 19, Trans-2-(((3′-fluoro-5′-((2-methylallyl)oxy)-[1,1′-biphenyl]-4-yl)oxy)methyl) cyclopropanecarboxylic acid], the “EC50 (μM)” value is listed as “Not active”.

With `O=C(O)[C@H]1C[C@@H]1COc1ccc(-c2cc(Oc3ccccc3)ccc2F)cc1F` (racemic) [Example 9, (Trans)-(+/−)-2-(((2′,3-difluoro-5′-phenoxy-[1,1′-biphenyl]-4-yl)oxy)methyl) cyclopropanecarboxylic acid], the pEC50 was 7.10.

Turning to `O=C(O)[C@@H]1C[C@H]1COc1ccc(-c2cc(OCC3CC3)ccc2F)cc1` (racemic) [Example 95, Trans-2-(((5′-(cyclopropylmethoxy)-2′-fluoro-[1,1′-biphenyl]-4-yl)oxy)methyl)cyclopropanecarboxylic acid], the pEC50 is 6.43.

On to `CC(C)Oc1ccc(F)c(-c2ccc(OC[C@@H]3C[C@H]3C(=O)O)c(C=O)c2)c1` (racemic) [Example 87, Trans-2-(((2′-fluoro-3-formyl-5′-isopropoxy-[1,1′-biphenyl]-4-yl)oxy)methyl) cyclopropanecarboxylic acid], for which the pEC50 is 5.75.

The molecule `O=C(O)[C@@H]1CC1COc1ccc(-c2cc(Oc3cccc(F)c3)cnc2Cl)cc1` (stereo partly shown) [Example 112] showed a pEC50 of 6.68.

In the case of `Cc1ccc(Oc2cc(F)c(F)c(-c3ccc(OCC4CC4C(=O)O)c(F)c3)c2)cc1F` (single isomer, unassigned) [Example 109], the pEC50 was 6.59.

For `CC(C)Sc1ncc(C(F)(F)F)cc1-c1ccc(OC[C@@H]2C[C@H]2C(=O)O)cc1` (racemic) [Example 69, Trans-2-((4-(2-(isopropylthio)-5-(trifluoromethyl)pyridin-3-yl)phenoxy)methyl)cyclopropanecarboxylic acid], the negative-log EC50 (pEC50) is 4.97.

With `O=C(O)[C@@H]1C[C@H]1CCc1ccc(-c2cccc(-n3cccn3)c2)cc1` (racemic) [Example 128, Trans-2-(2-(3′-(1H-pyrazol-1-yl)-[1,1′-biphenyl]-4-yl)ethyl) cyclopropanecarboxylic acid], the pEC50 is 6.15.

`CC(C)Oc1cc(Cl)cc(-c2ccc(CC[C@@H]3C[C@H]3C(=O)O)cc2)c1` (relative stereo) [Example 132, Trans-2-(2-(3′-chloro-5′-isopropoxy-[1,1′-biphenyl]-4-yl)ethyl) cyclopropanecarboxylic acid] had a pEC50 of 5.61.

In the case of `O=C(O)[C@@H]1C[C@H]1COc1ccc(-c2cc(C(F)(F)F)ccc2Cl)cc1` (racemic) [Example 121, Trans-2-(((2′-chloro-5′-(trifluoromethyl)-[1,1′-biphenyl]-4-yl)oxy)methyl)cyclopropanecarboxylic acid], the negative logarithm of the EC50 (pEC50) was 5.90.

On to `CC(C)Oc1cc(-c2ccc(OC[C@@H]3C[C@H]3C(=O)O)cc2)c(F)c(C(F)(F)F)c1` (racemic) [Example 49, Trans-2-(((2′-fluoro-5′-isopropoxy-3′-(trifluoromethyl)-[1,1′-biphenyl]-4-yl)oxy)methyl)cyclopropanecarboxylic acid], for which the negative-log EC50 (pEC50) is 5.78.

The molecule `COc1ncc(Cl)cc1-c1ccc(CC[C@@H]2C[C@H]2C(=O)O)cc1` (racemic) [Example 78, Trans-2-(4-(5-chloro-2-methoxypyridin-3-yl)phenethyl) cyclopropanecarboxylic acid] showed a negative-log EC50 (pEC50) of 5.22.

For `O=C(O)C1CC1COc1ccc(-c2cc(OC(F)(F)F)ccc2F)cc1` (racemic) [Example 51, Trans-2-(((2′-fluoro-5′-(trifluoromethoxy)-[1,1′-biphenyl]-4-yl)oxy)methyl)cyclopropanecarboxylic acid], the pEC50 is 6.33.
